Our source for the photoluminescence quantum yield values is the Deep4Chem optical property database.

This data set can be described thus: photoluminescence quantum yield (fraction); solvent given as SMILES.
The mark [1] stands for this setting: in O=P(c1ccccc1)(c1ccccc1)c1ccccc1Oc1ccccc1P(=O)(c1ccccc1)c1ccccc1.

Molecules are shown by their SMILES.

Take `N#Cc1ccc(C#Cc2ncc(-c3ccccc3)o2)cc1`: the photoluminescence quantum yield (in ClCCl) was found to be 0.28.
`N#Cc1cc(-n2c3ccccc3c3ncccc32)c(-n2c3ccccc3c3ncccc32)cc1C#N` gave a photoluminescence quantum yield (in c1cc(-n2c3ccccc3c3ccccc32)cc(-n2c3ccccc3c3ccccc32)c1) of 0.93.
Regarding `F[B-]1(F)N2C(=Nc3cccc4cccc2c34)c2cccc[n+]21`, the photoluminescence quantum yield reads like this: (in CC#N) 0.0002; (in CO) 0.007; (in CS(C)=O) 0.0005; (in Cc1ccccc1) 0.006.
For `CCN1C(=O)C(C2C(=O)c3c4ccccc4cc4cc5ccccc5c2c34)C(=O)N(CC)C1=S` (stereo not given), the photoluminescence quantum yield (in C1CCOC1) is 0.205, the photoluminescence quantum yield (in CCCCCC) came out at 0.316, the photoluminescence quantum yield (in Cc1ccccc1) turned out to be 0.052 and the photoluminescence quantum yield (in ClCCl) is 0.237.
Consider `COc1ccc(-c2sc3c(-c4ccc(OC)cc4)c4n(c3c2-c2ccc(OC)cc2)[B-](F)(F)[N+]2=Cc3c(-c5ccc(OC)cc5)c5sc(-c6ccc(OC)cc6)c(-c6ccc(OC)cc6)c5n3[B-](F)(F)[N+]2=C4)cc1`, for which the photoluminescence quantum yield is, setting by setting: (in CC#N) 0.36; (in CCCCCC) 0.46; (in CN(C)C=O) 0.32; (in Cc1ccccc1) 0.51; (in ClCCl) 0.5.
On to `CCCCn1c(-c2ccc(-c3nnc(-c4cccs4)o3)cc2)nc2c3ccccc3c3ccccc3c21`, for which, where the note is “in ClCCl”, the photoluminescence quantum yield came out at 0.62.
Regarding `CC(C)(C)c1ccc(C2=C(c3ccc(N(c4ccccc4)c4ccccc4)cc3)S(=O)(=O)c3c2sc(-c2ccc(N(c4ccccc4)c4ccccc4)cc2)c3-c2ccc(C(C)(C)C)cc2)cc1`, where the note is “in C1CCOC1”, the photoluminescence quantum yield came to 0.442.
`CCN(CC)c1ccc2cc(/C=C/c3ccccc3)c(=O)oc2c1` showed a photoluminescence quantum yield (in CC#N) of 0.85.
Consider `O=C(O)c1ccc(C(=O)O)c2cc3ccccc3cc12`, for which the photoluminescence quantum yield (in C1CCOC1) is 0.61 and the photoluminescence quantum yield (in CN(C)C=O) came out at 0.19.
The compound `C[Si]1(C)O[Si](C)(C)c2cc3nc4ccccc4c(-c4ccc(F)cc4)c3cc2[Si](C)(C)O1` showed a photoluminescence quantum yield (in ClCCl) of 0.3.
For the compound `CCCCCCCCC1(CCCCCCCC)c2cc(C#CC#Cc3ccc(N(c4ccccc4)c4ccccc4)cc3)ccc2-c2ccc(C=O)cc21`, the photoluminescence quantum yield is 0.9 (in C1CCOC1); 0.76 (in C1COCCO1); 0.2 (in CC#N); 0.23 (in CC(C)=O); 0.5 (in CCCCCC); 0.76 (in CCOC(C)=O). Also, the photoluminescence quantum yield was 0.16 (in CN(C)C=O); 0.2 (in CS(C)=O); 0.94 (in Cc1ccccc1); 0.09 (in ClC(Cl)Cl); 0.7 (in ClCCl).
Consider `CC1(C)c2ccccc2N(c2ccc(-c3ccc(C#N)nc3)cc2)c2ccccc21`, for which the photoluminescence quantum yield is, setting by setting: (in Cc1ccccc1) 0.345; (in N#Cc1ccc2c(c1)c1ccccc1n2-c1cccc(-n2c3ccccc3c3ccccc32)c1) 0.916.
With `c1ccc(-c2nn(-c3ccccc3)c3nc4ccc(N(c5ccccc5)c5ccccc5)cc4cc23)cc1`, the photoluminescence quantum yield runs as follows: (in C1CCCCC1) 0.76; (in C1CCOC1) 0.7; (in CC#N) 0.46; (in CC(C)=O) 0.59; (in CCCCCl) 0.7; (in CCCCOCCCC) 0.76. This compound also showed a photoluminescence quantum yield (in CN(C)C=O) of 0.5.
With `C(=C\c1ccc(N(c2ccccc2)c2ccccc2)cc1)/c1ccc(-c2nc(-c3ccc(/C=C/c4ccc(N(c5ccccc5)c5ccccc5)cc4)cc3)nc(-c3ccc(/C=C/c4ccc(N(c5ccccc5)c5ccccc5)cc4)cc3)n2)cc1`, the photoluminescence quantum yield (in ClC(Cl)Cl) turned out to be 0.27.
On to `CCOC(=O)c1ccc(C2=C(c3ccccc3)c3sc4ccccc4[n+]3[B-](F)(F)O2)cc1`, for which the photoluminescence quantum yield (in C1CCOC1) turned out to be 0.011.
`Fc1ccc(C2=C(c3ccc(F)cc3)c3cccc4c3c(cc3nc5ccccc5nc34)O2)cc1`: where the note is “in ClCCl”, the photoluminescence quantum yield stood at 0.35.
Take `CCOc1ccc2c(-c3nc(-c4ccccc4Cl)no3)cc(=O)oc2c1`: the photoluminescence quantum yield is, setting by setting: (in CCO) 0.52; (in ClC(Cl)Cl) 0.26.
`CCCC1(CCC)c2cc(-c3ccc4c(c3)C(CCC)(CCC)c3cc(-c5ccc6c(c5)C(CCC)(CCC)c5cc(C(C)(C)CC)ccc5-6)ccc3-4)ccc2-c2ccc(-c3ccc4c(c3)C(CCC)(CCC)c3cc(C(C)(C)CC)ccc3-4)cc21` had a photoluminescence quantum yield (in C1CCCCC1) of 0.98.
As to `CCCC1(CCC)c2ccccc2-c2ccc(-c3ccc4c(c3)C(CCC)(CCC)c3cc(-c5ccc6c(c5)C(CCC)(CCC)c5ccccc5-6)ccc3-4)cc21`, for the setting “in C1CCCCC1”, the photoluminescence quantum yield was 0.91.
`c1cc2c3c(cccc3c1)-c1c-2ccc2ccc3ccccc3c12` yielded a photoluminescence quantum yield (in CCCCCCC) of 0.14.
On to `c1cc2ccc3ccc(OP4(Oc5ccc6ccc7cccc8ccc5c6c78)=NP(Oc5ccc6ccc7cccc8ccc5c6c78)(Oc5ccc6ccc7cccc8ccc5c6c78)=NP(Oc5ccc6ccc7cccc8ccc5c6c78)(Oc5ccc6ccc7cccc8ccc5c6c78)=N4)c4ccc(c1)c2c34`, for which the photoluminescence quantum yield (in ClCCl) is 0.92.
The same measure, in the same setting: the figure for `CCN(CC)c1ccc2cc(-c3nc4c5ccccc5c5ccccc5c4n3-c3ccc(C(C)(C)C)cc3)c(=O)oc2c1` is 0.97.
`C(S/C=C/c1ccc(-c2ccc(/C=C/SC=C3CCCCCC3)cc2)cc1)=C1CCCCCC1`: the photoluminescence quantum yield (in ClCCl) is 0.176.
Regarding `COc1ccc(-c2c3ccc([nH]3)c3nc(c(-c4ccc(C#N)cc4)c4ccc([nH]4)c4ccc([nH]4)c(-c4ccc(OC)cc4)c4ccc2o4)C=C3)cc1`, the photoluminescence quantum yield (in C1CCOC1) came to 0.072, the photoluminescence quantum yield (in Cc1ccccc1) is 0.141 and the photoluminescence quantum yield (in c1ccccc1) amounted to 0.147.
For `Cc1cc(C)c(B(c2c(C)cc(C)cc2C)c2c(C)cc(-n3c4ccc(N(c5ccccc5)c5ccccc5)cc4c4cc(N(c5ccccc5)c5ccccc5)ccc43)cc2C)c(C)c1`, the photoluminescence quantum yield (in Cc1ccccc1) was determined as 0.84 and the photoluminescence quantum yield under setting [1] was determined as 1.
For `[NH3+]C(Cc1ccccc1)C(=O)[O-]` (stereo not given), where the note is “in O”, the photoluminescence quantum yield is 0.022.
Regarding `c1ccc(-c2nnc(-c3ccc(-n4c5ccccc5c5ccccc54)cc3)o2)cc1`, the photoluminescence quantum yield (in Cc1ccccc1) is 0.57.
`CN(C)c1ccc(-c2cc(-c3ccccc3)nn2C)cc1` came in with a photoluminescence quantum yield (in ClCCl) of 0.06.
As to `Nc1cccc2cccc(N)c12`, the photoluminescence quantum yield reads like this: (in CC#N) 0.1; (in CO) 0.09; (in CS(C)=O) 0.3; (in Cc1ccccc1) 0.13.
On to `Clc1ccc(-c2cccc3ncc(-c4ccccc4)n23)cc1`, for which the photoluminescence quantum yield (in ClCCl) was 0.42.
As to `COc1ccc(C2=C(c3ccc(OC)cc3)C(c3ccccc3)=[N+]3C2=Nc2c(-c4ccc(OC)cc4)c(-c4ccc(OC)cc4)c(-c4ccccc4)n2[B-]3(F)F)cc1`, where the note is “in Cc1ccccc1”, the photoluminescence quantum yield turned out to be 0.01.
Take `COCCOCCOCCN1C(=O)c2cc(NCCOCCO)c3c4c(cc(NCCOCCO)c(c24)C1=O)C(=O)N(CCOCCOCCOC)C3=O`: the photoluminescence quantum yield reads like this: (in CO) 0.37; (in ClC(Cl)Cl) 0.56; (in O) 0.031.
With `c1ccc(-c2nc(-c3ccccc3)nc(-c3ccc(-n4c5ccccc5c5c6c(ccc54)C4(c5ccccc5-c5ccccc54)c4ccccc4-6)cc3)n2)cc1`, the photoluminescence quantum yield under setting [1] came to 0.45.
On to `F[Si-](F)(c1ccccc1)(c1ccccc1)c1cccc2ccccc12`, for which, where the note is “in C1CCOC1”, the photoluminescence quantum yield is 0.061.
`CCCC1(CCC)c2cc(C=C(C#Cc3ccccc3)C#Cc3ccccc3)ccc2-c2ccc(C=C(C#Cc3ccccc3)C#Cc3ccccc3)cc21` gave a photoluminescence quantum yield (in ClC(Cl)Cl) of 0.31.
The compound `N[C@@H](Cn1nnc2cc(-c3ccc(N4CCOCC4)cc3)ccc21)C(=O)O` showed a photoluminescence quantum yield (in CO) of 0.004.
`CCC1=C(C)C2=Cc3c4ccccc4c4n3[B-](c3ccc5ccc6cccc7ccc3c5c67)(Oc3ccccc3-4)[N+]2=C1C` (stereo not given): the photoluminescence quantum yield by setting is: (in CC#N) 0.66; (in CCCCCC) 0.72; (in Cc1ccccc1) 0.66; (in ClCCl) 0.71.
Turning to `CC1=N/C(=C\c2ccccc2N)C(=O)N1C`, the photoluminescence quantum yield is 0.002 (in C1CCCCC1); 0.009 (in C1CCOC1); 0.004 (in CC#N); 0.002 (in CO); 0.007 (in CS(C)=O); 0.004 (in ClCCl). Also, the photoluminescence quantum yield (in O) is 0.001.
Turning to `CC1=CC(C)=[N+]2C1=C(c1c3ccccc3cc3ccccc13)c1c(C)cc(C)n1[B-]2(F)F`, the photoluminescence quantum yield runs as follows: (in CC#N) 0.006; (in CCCCCC) 0.99; (in CCO) 0.038; (in CN(C)C=O) 0.011; (in Cc1ccccc1) 0.92; (in ClCCl) 0.072.
Under “in CC1CCCO1”, `O=c1cc2c(Br)c(O)c3cccc4ccc(o1)c2c43` came in with a photoluminescence quantum yield of 0.15.
With `CCN(CC)c1ccc2cc(-c3csc(NC(C)=O)c3C#N)c(=O)oc2c1`, the photoluminescence quantum yield was 0.34 (in C1CCOC1), 0.07 (in CS(C)=O) and 0.33 (in ClCCl).
As for `CC(C)(C)c1ccc2c(c1)Cc1cc(C(C)(C)C)ccc1-2`, the photoluminescence quantum yield (in C1CCCCC1) came to 0.7.
For `CCN(CC)c1ccc2c(c1)oc(=O)c1c(=O)oc3cc(C#Cc4ccc(C#N)cc4)ccc3c12`, the photoluminescence quantum yield by setting is: (in CS(C)=O) 0.1; (in ClCCl) 0.69.
Take `CCN(CC)c1ccc(-c2nc(Oc3ccc(-c4nc5ccccc5[nH]4)cc3)nc(Oc3ccc(-c4nc5ccccc5[nH]4)cc3)n2)cc1`: for the setting “in CN(C)C=O”, the photoluminescence quantum yield was 0.197.
Under “in ClCCl”, `COC(=O)C1=C(C(=O)OC)C2(c3ccccc3-c3ccc([N+](=O)[O-])cc32)C2(/C=C/c3ccccc3)c3cc(OC)c(OC)cc3CCN12` (stereo not given) registered a photoluminescence quantum yield of 0.00069.
For the compound `S=c1[nH]nc(-c2ccc(/C=C/c3ccc(-c4n[nH]c(=S)o4)cc3)cc2)o1`, the photoluminescence quantum yield (in CN(C)C=O) amounted to 0.33.
